# Assay results: patent US20260294845A1, “Uses of Adrenalone to Manage Cardiotoxicity or Cardiovascular Disorders” (Emory University, priority 2023, published 2026)
# “Also recorded” adds a separate entry of the source.
# What was measured:
# hiPSC-CMs [1] = assay: Cell viability of hiPSC-CMs treated with carfilzomib with or without 4H10 (CellTiter-Blue); assay type: cell-based, human; conditions: for mitigation of carfilzomib-induced cytotoxicity: co-treatment of hiPSC-CMs with carfilzomib
# Procedure: Cell viability was analyzed after IMR-90 hiPSC-CMs were treated with carfilzomib (CFZ) with or without 4H10 for 24 hours. (n=5 cultures).
# (§1) A human induced pluripotent cell line (hiPSC line IMR90™, WiCell Research Institute) was fed daily on Matrigel™-coated plates with a defined medium for hiPSC culture, mTeSR1 medium. For CM differentiation, hiPSCs were induced using a growth factor-driven differentiation protocol as reported in Jha et al. Efficient differentiation of cardiomyocytes from human pluripotent stem cells with growth factors. Methods Mol Biol, 2015, 1299, 115-131. On the day of induction (day 0), medium was replaced with RPMI 1640 medium supplemented with 2% B27 minus insulin (a cell culture supplement) containing 100 ng/ml activin A. After induction for 24 h, the medium was replaced with fresh RPMI supplemented with 2% B27 minus insulin containing 10 ng/ml BMP4. From day 4 of differentiation, the medium was replaced with RPMI supplemented with 2% B27. On day 5, the cells were dissociated and reseeded into AggreWell400™ plates to acquire cardiac spheres. After 24 h, the cardiac spheres formed were collected and transferred to low-adhesion dishes for suspension culture. The medium was changed every other day. Cardiac spheres typically started beating spontaneously by day 7 to 9.
# Cardiomyocytes derived from human pluripotent stem cells (hiPSC-CMs) were provide a new platform for the studies of cancer drug-induced side effects and therapies. Using these cells, lead molecules were identified indicating protective properties on cardiomyocytes from the toxic effect of chemotherapy agents and ethanol (EtOH). […] Oxidative stress is a common molecular mechanism for cardiotoxicity induced by chemotherapy including proteosome inhibitors.
# Consistently, treatment of hiPSC-CMs induced cell death and cytotoxicity. To examine if 4H10 could protect cardiomyocytes from carfilzomib-induced cytotoxicity, hiPSC-CMs were treated with carfilzomib at 5 μM alone or together with 4H10 at various concentrations for 24 h and then examined cell viability using the CellTiter-Blue Cell Viability Assay. Cells treated with DMSO (vehicle) were used as a control.
# hiPSC-CMs [2] = assay: MitoTracker Red staining (mitochondrial content and activity) of carfilzomib-treated hiPSC-CMs, high-content imaging; assay type: cell-based, human; conditions: 24 h
# Procedure: MitoTracker™ Red staining was performed in IMR-90 hiPSC-CMs treated with CFZ with or without 4H10 for 24 hours.
# as §1
# Mitochondria play a crucial role in energy production, cellular metabolism, and the regulation of cell death. Experiments indicate carfilzomib induces mitochondrial dysfunction in hiPSC-CMs. To assess the potential mitigating effects of 4H10 on carfilzomib-induced mitochondrial dysfunction, hiPSC-CMs were treated with carfilzomib alone or co-treated with 4H10 at various concentrations. Mitochondria were then visualized using MitoTracker™ Red dyes, which can accumulate in active mitochondria and allow for the measurement of mitochondrial content and activity in live cells.
# hiPSC-CMs [3] = assay: Intracellular oxidative stress (ROS) of carfilzomib-treated hiPSC-CMs, DCFDA/H2DCFDA assay; assay type: cell-based, human; conditions: 24 h
# Procedure: The quantification of oxidative stress was performed using DCFDA staining of SCVI hiPSC-CMs treated with Cfz with or without 4H10 for 24 hours.
# The induction of oxidative stress is a crucial mechanism through which proteasome inhibitors induce apoptosis. To investigate if 4H10 could alleviate carfilzomib-induced increase of oxidative stress in cardiomyocytes, hiPSC-CMs were exposed to carfilzomib at 5 μM alone or together with 4H10 at various concentrations for 24 h. The production of cellular reactive oxygen species (ROS) was then measured using DCFDA/H2DCFDA assay kit.
# proteasome [4] = assay: Proteasome activity in hiPSC-CMs after carfilzomib with or without 4H10; assay type: cell-based, human; conditions: 24 h, IMR-90 hiPSC-CMs
# Procedure: (§2) (top) Proteasome activity of IMR-90 hiPSC-CMs was measured after the cells were treated with CFZ with or without 4H10 for 24 hours. (bottom, right, left) Proteasome activity and cell viability of RPMI8226 cells (cancer cells) were measured after the cells were treated with CFZ with or without 4H10 for 24 hours.
# The proteasome, responsible for the regulated degradation of proteins, is a key cellular component targeted by carfilzomib as part of its mechanism of action in cancer therapy. Therefore, in addition to validation of cardioprotective effects of 4H10 on cell viability and mitochondrial function, it is crucial to examine if 4H10 compromises the proteasome inhibition efficacy of carfilzomib.
# proteasome [5] = assay: Proteasome activity in RPMI8226 cells after carfilzomib with or without 4H10; assay type: cell-based; conditions: 24 h
# Procedure: as §2
# (§3) Experiments were designed to determine the effects of carfilzomib and 4H10 on proteasome activity and cell viability of RPMI8226 cell line, which has been investigated for the efficacy tests of carfilzomib in […].
# RPMI8226 cells = assay: Cell viability of RPMI8226 cells after carfilzomib with or without 4H10; assay type: cell-based; conditions: 24 h
# Procedure: as §2, §3
# hiPSC-CMs [6] = assay: Cell viability of hiPSC-CMs treated with doxorubicin with or without 4H10 (CellTiter-Blue); assay type: cell-based, human
# From the text: Doxorubicin is a widely used chemotherapy drug for various cancers, including breast cancer, leukemia, and lymphoma. However, one significant side effect associated with doxorubicin use is cardiotoxicity. It is contemplated that 4H10 may target common mechanisms of cardiotoxicity and have a broad impact of cardioprotection since it protects hiPSC-CMs from toxicity induced by both ethanol and carfilzomib.
# hiPSC-CMs [7] = assay: Cell viability assay and cell counting (high-content imaging) of EtOH-challenged hiPSC-CMs; assay type: cell-based, human
# From the text: (§4) EtOH-induced cardiotoxicity shares common disease phenotypes and possibly similar underlying mechanisms with drug-induced cardiotoxicity.
# SCVI-273 hiPSC-CMs = assay: Cell viability of EtOH-treated hiPSC-CMs derived from SCVI-273 hiPSCs; assay type: cell-based, human; conditions: another cell line SCVI-273
# From the text: as §4
# hiPSC-CMs [8] = assay: Oxidative stress in EtOH-treated hiPSC-CMs; assay type: cell-based, human
# From the text: as §4
# hiPSC-CMs [9] = assay: Cardiac troponin T expression and mitochondrial content in EtOH-treated hiPSC-CMs; assay type: cell-based, human
# From the text: as §4
# hiPSC-CMs [10] = assay: Effects of chemotherapeutic agents on function of hiPSC-CMs; assay type: cell-based, human; conditions: carfilzomib treatment
# hiPSC-CMs [11] = conditions: carfilzomib; Forghani et al., 2021; cited from earlier work
# [12] = carfilzomib, serum; read-out: maximum (or peak) serum concentration, Cmax; cited from earlier work
# patients = conditions: among the proteosome inhibitors; cited from earlier work
# hiPSC-CMs [13] = assay: Chronic ethanol exposure of hiPSC-CMs: cellular properties, functions and global proteomic profiling; assay type: cell-based, human
# Procedure: Cardiomyocytes derived from human pluripotent stem cells (hiPSC-CMs) were treated with clinically relevant doses of ethanol for various durations up to 5 weeks. The treated cells were characterized for their cellular properties and functions, and global proteomic profiling was conducted.
# hiPSC-CMs [14] = conditions: Liu et al., 2021; cited from earlier work
# α1-AR [15] = assay: Staining of hiPSC-CMs with BODIPY-FL-prazosin for α1-AR expression; assay type: cell-based, human; conditions: fluorescent staining, α1-AR expression and localization
# From the text: The expression of α1-AR was detected in hiPSC-CMs based on the BODIPY FL prazosin signals.
# α1-AR [16] = conditions: literature knowledge; cited from earlier work
# [17] = 4H10 co-treatment with carfilzomib
# [18] = clinically relevant doses of ethanol, up to 5 weeks
molecule,measurement,setting,value
CNCC(=O)c1ccc(O)c(O)c1 [4H10],maximal cytoprotective effect against carfilzomib,"hiPSC-CMs [1]; 4H10 at 25 μM and 50 μM + carfilzomib 5 μM, 24 h",maximal cytoprotective effect for the cells to reach viability levels similar to those from DMSO-treated cells
same,cell viability after co-treatment with carfilzomib and 4H10,"hiPSC-CMs [1]; carfilzomib 5 μM + 4H10 at 5 μM or higher, 24 h, compared (so in the source) with DMSO-treated cells",significantly increased cell viability
same,mitigation of carfilzomib-induced cytotoxicity,hiPSC-CMs [1],protection of hiPSC-CMs from carfilzomib-induced cardiotoxicity; also recorded: reduced cytotoxicity was observed; also recorded: mitigated carfilzomib-induced cytotoxicity in a dose-dependent manner
same,mitigation of carfilzomib-induced cytotoxicity,hiPSC-CMs [1]; listed as adrenalone HCl,protected hiPSC-CMs from cardiotoxicity induced by carfilzomib
same,MitoTracker Red fluorescence intensity on co-treatment,"hiPSC-CMs [2]; 4H10 at 10 μM or higher + carfilzomib, dose-dependent",increase in fluorescence intensity
same,mitigation of carfilzomib-induced mitochondrial defects,hiPSC-CMs [2]; co-treatment with carfilzomib,mitigates carfilzomib-induced mitochondrial defects; also recorded: mitigated carfilzomib-induced mitochondrial defects in hiPSC-CMs in a dose-dependent manner
same,DCFDA fluorescence intensity on co-treatment,"hiPSC-CMs [3]; 4H10 at 5 μM or higher + carfilzomib 5 μM, dose-dependent",reduction of DCFDA fluorescence intensity
same,mitigation of carfilzomib-induced oxidative stress,"hiPSC-CMs [3]; co-treatment with carfilzomib, SCVI hiPSC-CMs",mitigates carfilzomib-induced intracellular oxidative stress; also recorded: mitigated carfilzomib-induced oxidative stress in hiPSC-CMs in a dose-dependent manner
same,effect on proteasome inhibition activity of carfilzomib,proteasome [4]; [17],does not interfere with the proteasome inhibition activity of carfilzomib; also recorded: did not interfere with the proteasome inhibition activity of carfilzomib
same,change of proteasome activity in RPMI8226 cells by 4H10,proteasome [5]; 4H10 with carfilzomib,did not elicit any changes
same,change of carfilzomib-reduced RPMI8226 viability by 4H10 co-treatment,RPMI8226 cells; [17],does not interfere with the proteasome inhibition activity of carfilzomib and the ability of carfilzomib to kill cancer cells; also recorded: not significantly changed
same,cell viability after co-treatment with doxorubicin and 4H10,"hiPSC-CMs [6]; 4H10 25 μM + doxorubicin 1, 2, 5 or 10 μM, 24 h, compared with doxorubicin",increased cell viability
same,mitigation of doxorubicin-induced cytotoxicity,hiPSC-CMs [6]; 4H10 co-treatment with doxorubicin,protects hiPSC-CMs from doxorubicin-induced cytotoxicity; also recorded: mitigated doxorubicin-induced cytotoxicity
same,protection from alcohol-induced cytotoxicity,hiPSC-CMs [7]; hiPSC-CMs,can protect hiPSC-CMs from alcohol- and carfilzomib-induced cytotoxicity
same,cell survival following EtOH challenge,"hiPSC-CMs [7]; hiPSC-CMs challenged with EtOH, cell viability assay and cell counting",increased cell survival dose-dependently
same,cell number after EtOH treatment,hiPSC-CMs [7]; high-content imaging,attenuated the reduced cell number induced by EtOH treatment
same,"cell viability, EtOH-treated SCVI-273 hiPSC-CMs",SCVI-273 hiPSC-CMs,increased cell viability
same,oxidative stress in EtOH-treated hiPSC-CMs,hiPSC-CMs [8],reduced oxidative stress
same,defects in expression of cardiac troponin T,hiPSC-CMs [9],reduced
same,defects in mitochondrial content,hiPSC-CMs [9],reduced
CC(C)C[C@H](NC(=O)[C@H](CCc1ccccc1)NC(=O)CN1CCOCC1)C(=O)N[C@@H](Cc1ccccc1)C(=O)N[C@@H](CC(C)C)C(=O)[C@@]1(C)CO1 [carfilzomib],cell viability (cytotoxicity) after carfilzomib,"hiPSC-CMs [1]; carfilzomib 5 μM alone, 24 h, IMR-90 hiPSC-CMs, compared with DMSO",caused cytotoxicity; also recorded: significant decrease in cell viability
same,mitochondrial mass and activity (MitoTracker Red fluorescence intensity),"hiPSC-CMs [2]; carfilzomib alone, IMR-90 hiPSC-CMs",reduction in mitochondrial mass and activity
same,DCFDA fluorescence intensity (oxidative stress),"hiPSC-CMs [3]; carfilzomib 5 μM alone, SCVI hiPSC-CMs",significant increase in DCFDA fluorescence intensity
same,cellular proteasome activity,"proteasome [4]; carfilzomib, compared with DMSO",significant decrease in cellular proteasome activity
same,proteasome activity in RPMI8226 cells,"proteasome [5]; carfilzomib, compared to DMSO",suppressed
same,viability of RPMI8226 cells,"RPMI8226 cells; carfilzomib, compared to DMSO",significantly decreased the viability
same,Ca^2+ handling of hiPSC-CMs,hiPSC-CMs [10],negatively affects
same,contractility of hiPSC-CMs,hiPSC-CMs [10],negatively affects
same,mitochondrial function of hiPSC-CMs,hiPSC-CMs [10],negatively affects
same,traction forces of hiPSC-CMs,hiPSC-CMs [10],negatively affects
same,molecular and functional alterations of hiPSC-CMs,hiPSC-CMs [11],causes molecular and functional alterations
same,Cmax,[12],5.88 µM
same,cardiotoxicity in clinic,patients,highest cardiotoxicity in clinic
CCO [ethanol],Ca^2+ handling,hiPSC-CMs [13]; [18],deranged Ca^2+ handling
same,action potential,hiPSC-CMs [13]; [18],abnormal action potential
same,cell death,hiPSC-CMs [13]; [18],Increased cell death
same,contractility,hiPSC-CMs [13]; [18],altered contractility
same,oxidative stress,hiPSC-CMs [13]; [18],"Increased cell death, oxidative stress"
same,structure development,hiPSC-CMs [13]; [18],suppressed structure development
same,global proteomic profiling: dysregulated proteins,"hiPSC-CMs [13]; ethanol, up to 5 weeks","Many dysregulated proteins identified by global proteomic profiling were involved in apoptosis, heart contraction, and extracellular collagen matrix"
same,signaling pathways affected,hiPSC-CMs [13]; long-term ethanol exposure,several signaling pathways including the Wnt and TGFβ signaling pathways were affected
same,changes in hiPSC-CMs on chronic ethanol exposure,hiPSC-CMs [14],induces deleterious changes in cardiomyocytes
BODIPY-FL-prazosin,BODIPY FL prazosin signals in hiPSC-CMs,α1-AR [15],co-localized with nuclei
same,α1-AR affinity / antagonism,α1-AR [16],high-affinity antagonist
